Experimental data: US11524968B2, “Heterocyclic compound as a protein kinase inhibitor” (HK inno.N Corporation, priority 2017, dated 2022)

target: JAK1 (Homo sapiens (Human), UniProt P23458); assay: Analysis of JAK1 activity inhibition ability (ADP-Glo Kinase Assay); assay type: biochemical; details: JAK1 enzyme, ADP-Glo luminescence, ATP 250 uM, IRS-itide substrate, 30° C. 40 minutes; read-out: IC50
Experimental: Test Example 1: Analysis of JAK1 Activity Inhibition Ability of Compound of Formula 1 (ADP-Glo™ Kinase Assay)
A JAK inhibition ability of a compound according to the present invention was identified as follows.
A control material and a test material were prepared for each concentration, in such a way that they were diluted by means of DMSO. At the same time, ATP (250 uM) and JAK substrate (JAK1, IRS-itide 40 ng/mL) were prepared, in such a way that they were diluted by means of kinase buffer (40 mM Tris-HCl pH 7.5, 20 mM MgCl2, 0.5 mg/mL BSA, 50 uM DTT).
A test drug for each concentration, substrate, ATP and JAK enzyme were mixed in an eppendorf tube, and reacted in a 30° C. incubator for 40 minutes.
ADP-Glo™ reagent contained in ADP-Glo™ Kinase Enzyme System (Promega, USA, V9571) was added into each eppendorf tube, and reacted in a 30° C. incubator for 40 minutes. A kinase detection reagent contained in ADP-Go™ Kinase Enzyme System was inserted into the eppendorf tube, then an integration time was set to 1 second by using Wallac Victor 2™, then luminescence was measured, and then JAKs phosphorylation inhibition ability of the test material was analyzed. The concentration of the compound, which causes 50% of the JAK enzyme activity inhibition in comparison With the control group, was determined as IC50 (nM) of an inhibitor, wherein the results thereof are shown in a following table 1.

Chain of JAK1 (P23458 whole entry): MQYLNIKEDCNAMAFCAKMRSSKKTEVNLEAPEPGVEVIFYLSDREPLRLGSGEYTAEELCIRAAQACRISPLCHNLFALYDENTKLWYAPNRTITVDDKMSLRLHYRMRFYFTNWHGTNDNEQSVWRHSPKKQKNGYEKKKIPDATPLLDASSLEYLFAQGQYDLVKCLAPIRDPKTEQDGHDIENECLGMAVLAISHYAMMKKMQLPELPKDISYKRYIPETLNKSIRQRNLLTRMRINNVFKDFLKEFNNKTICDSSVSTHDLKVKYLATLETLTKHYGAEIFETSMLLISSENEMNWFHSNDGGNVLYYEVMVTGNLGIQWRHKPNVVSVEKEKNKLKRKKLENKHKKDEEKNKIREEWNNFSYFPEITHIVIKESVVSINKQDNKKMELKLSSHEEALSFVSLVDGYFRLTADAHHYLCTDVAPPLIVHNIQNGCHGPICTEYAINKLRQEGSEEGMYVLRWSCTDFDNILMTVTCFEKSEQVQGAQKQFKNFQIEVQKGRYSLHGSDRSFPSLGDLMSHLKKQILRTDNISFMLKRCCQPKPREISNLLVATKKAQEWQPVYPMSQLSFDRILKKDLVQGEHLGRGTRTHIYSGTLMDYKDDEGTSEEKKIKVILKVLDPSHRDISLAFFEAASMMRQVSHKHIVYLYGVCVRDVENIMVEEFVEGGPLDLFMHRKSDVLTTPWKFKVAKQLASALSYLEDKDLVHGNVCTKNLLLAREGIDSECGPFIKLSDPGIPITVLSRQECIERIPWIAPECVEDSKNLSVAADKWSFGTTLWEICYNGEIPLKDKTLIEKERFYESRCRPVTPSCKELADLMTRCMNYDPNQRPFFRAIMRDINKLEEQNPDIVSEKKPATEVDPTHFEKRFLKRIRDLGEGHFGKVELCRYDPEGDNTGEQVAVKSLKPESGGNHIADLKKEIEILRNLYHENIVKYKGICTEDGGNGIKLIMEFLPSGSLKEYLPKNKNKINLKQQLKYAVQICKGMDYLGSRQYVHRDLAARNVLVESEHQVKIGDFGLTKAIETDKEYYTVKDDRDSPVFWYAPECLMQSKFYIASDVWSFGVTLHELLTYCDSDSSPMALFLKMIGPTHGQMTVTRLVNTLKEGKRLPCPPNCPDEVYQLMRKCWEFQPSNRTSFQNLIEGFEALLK

IC50 [nM] | Structure (SMILES)
< 20 | CC1CN(C(=O)n2ccnc2)CC=C1c1cc(NC(=O)C2CC2)nc2[nH]ccc12 (centres unmarked) [Example 452, N-(4-(1-(1H-imidazole-1-carbonyl)-3-methyl-1,2,3,6-tetrahydropyridin-4-yl)-1H-pyrrolo[2,3-b]pyridin-6-yl)cyclopropanecarboxamide]
20 to 200 | CCS(=O)(=O)Nc1c(F)cc(-c2cc(NC(=O)C3CC3)nc3[nH]ccc23)cc1F [Example 81, N-(4-(4-(ethylsulfonamido)-3,5-difluorophenyl)-1H-pyrrolo[2,3-b]pyridin-6-yl)cyclopropanecarboxamide]
< 20 | CC(C)CS(=O)(=O)Nc1ccc(-c2cc(NC(=O)C3CC3)nc3[nH]ccc23)cc1 [Example 43, N-(4-(4-((2-methylpropyl)sulfonamido)phenyl)-1H-pyrrolo[2,3-b]pyridin-6-yl)cyclopropanecarboxamide]
20 to 200 | COc1cc(C(=O)N2CC(NC3CC=C(c4cc(NC(=O)C5CC5)nc5[nH]ccc45)CC3)C2)ccn1 (centres unmarked) [Example 497, N-(4-(4-((1-(2-methoxyisonicotinoyl)azetidin-3-yl)amino)cyclohex-1-en-1-yl)-1H-pyrrolo[2,3-b]pyridin-6-yl)cyclopropanecarboxamide]
20 to 200 | O=C(Nc1cc(-c2ccc(NS(=O)(=O)c3cccc(F)c3)cc2C(F)(F)F)c2cc[nH]c2n1)C1CC1 [Example 122, N-(4-(4-((3-fluorophenyl)sulfonamido)-2-(trifluoromethyl)phenyl)-1H-pyrrolo[2,3-b]pyridin-6-yl)cyclopropanecarboxamide]
> 200 | N#Cc1ccc(Cn2cc(-c3nc(NC(=O)C4CC4)nc4[nH]ccc34)cn2)cn1 [Example 482, N-(4-(1-((6-cyanopyridin-3-yl)methyl)-1H-pyrazol-4-yl)-7H-pyrrolo[2,3-d]pyrimidin-2-yl)cyclopropanecarboxamide]
< 20 | C[C@@H]1CN(C2(CC#N)CN(S(=O)(=O)C(F)(F)F)C2)CC=C1c1cc(NC(=O)C2CC2)nc2[nH]ccc12 [Example 628, (S)—N-(4-(1-(3-(cyanomethyl)-1-((trifluoromethyl)sulfonyl)azetidin-3-yl)-3-methyl-1,2,3,6-tetrahydropyridin-4-yl)-1H-pyrrolo[2,3-b]pyridin-6-yl)cyclopropanecarboxamide]
20 to 200 | N#CCC(=O)N1CCC(c2cc(NC(=O)C3CC3)nc3[nH]ccc23)CC1 [Example 652, N-(4-(1-(2-cyanoacetyl)piperidin-4-yl)-1H-pyrrolo[2,3-b]pyridin-6-yl)cyclopropanecarboxamide]
< 20 | C[C@@H]1CN(C(=O)c2ccc([N+](=O)[O-])cc2)CC=C1c1cc(NC(=O)C2CC2)nc2[nH]ccc12 [Example 398, (S)—N-(4-(3-methyl-1-(4-nitrobenzoyl)-1,2,3,6-tetrahydropyridin-4-yl)-1H-pyrrolo[2,3-b]pyridin-6-yl)cyclopropanecarboxamide]
20 to 200 | CC1CN(C(=O)c2cc(F)cc(F)c2)CC=C1c1cc(NC(=O)C2CC2)nc2[nH]ccc12 (centres unmarked) [Example 358, N-(4-(1-(3,5-difluorobenzoyl)-3-methyl-1,2,3,6-tetrahydropyridin-4-yl)-1H-pyrrolo[2,3-b]pyridin-6-yl)cyclopropanecarboxamide]
< 20 | N#CCOC(=O)N1CC=C(c2cc(NC(=O)C3CC3)nc3[nH]ccc23)CC1 [Example 455, cyanomethyl 4-(6-(cyclopropanecarboxamido)-1H-pyrrolo[2,3-b]pyridin-4-yl)-3,6-dihydropyridine-1 (2H)-carboxylate]
< 20 | C[C@@H]1CN(C(=O)CC2(C#N)CCCCC2)CC=C1c1cc(NC(=O)C2CC2)nc2[nH]ccc12 [Example 406, (S)—N-(4-(1-(2-(1-cyanocyclohexyl)acetyl)-3-methyl-1,2,3,6-tetrahydropyridin-4-yl)-1H-pyrrolo[2,3-b]pyridin-6-yl)cyclopropanecarboxamide]
20 to 200 | O=C(Nc1cc(-c2ccc(CNC3CCS(=O)(=O)C3)cc2)c2cc[nH]c2n1)C1CC1 (centres unmarked) [Example 595, N-(4-(4-(((1,1-dioxidotetrahydrothiophen-3-yl)amino)methyl)phenyl)-1H-pyrrolo[2,3-b]pyridin-6-yl)cyclopropanecarboxamide]
20 to 200 | CC1(C)CN(S(=O)(=O)CCCC#N)CC=C1c1cc(NC(=O)C2CC2)nc2[nH]ccc12 [Example 180, N-(4-(1-((3-cyanopropyl)sulfonyl)-3,3-dimethyl-1,2,3,6-tetrahydropyridin-4-yl)-1H-pyrrolo[2,3-b]pyridin-6-yl)cyclopropanecarboxamide]
20 to 200 | CCCCS(=O)(=O)Oc1ccc(-c2cc(NC(=O)C3CC3)nc3[nH]ccc23)cc1 [Example 632, 4-(6-(cyclopropanecarboxamido)-1H-pyrrolo[2,3-b]pyridin-4-yl)phenyl butane-1-sulfonate]
> 200 | N#CCC(=O)N1CCN(c2cc(NC(=O)C3CC3)nc3[nH]ccc23)CC1 [Example 676, N-(4-(4-(2-cyanoacetyl)piperazin-1-yl)-1H-pyrrolo[2,3-b]pyridin-6-yl)cyclopropanecarboxamide]

Continued, molecule first:

Structure (SMILES) | IC50 [nM]
N#Cc1ccc(C(=O)N2CC=C(c3cc(NC(=O)C4CC4)nc4[nH]ccc34)CC2)cc1 [Example 293, N-(4-(1-(4-cyanobenzoyl)-1,2,3,6-tetrahydropyridin-4-yl)-1H-pyrrolo[2,3-b]pyridin-6-yl)cyclopropanecarboxamide] | 20 to 200
O=C(Nc1cc(C2=CCN(C(=O)N3CCS(=O)(=O)CC3)CC2)c2cc[nH]c2n1)C1CC1 [Example 445, N-(4-(1-(1,1-dioxidothiomorpholine-4-carbonyl)-1,2,3,6-tetrahydropyridin-4-yl)-1H-pyrrolo[2,3-b]pyridin-6-yl)cyclopropanecarboxamide] | 20 to 200
CCCCNC(=O)Nc1ccc(-c2cc(NC(=O)C3CC3)nc3[nH]ccc23)cc1 [Example 433, N-(4-(4-(3-butylureido)phenyl)-1H-pyrrolo[2,3-b]pyridin-6-yl)cyclopropanecarboxamide] | 20 to 200
CC1CN(C(=O)CCC#N)CC=C1c1cc(NC(=O)C2CC2)nc2[nH]ccc12 (centres unmarked) [Example 284, N-(4-(1-(3-cyanopropanoyl)-3-methyl-1,2,3,6-tetrahydropyridin-4-yl)-1H-pyrrolo[2,3-b]pyridin-6-yl)cyclopropanecarboxamide] | < 20
CCCCNC(=S)Nc1ccc(-c2cc(NC(=O)C3CC3)nc3[nH]ccc23)cc1 [Example 463, N-(4-(4-(3-butylthioureido)phenyl)-1H-pyrrolo[2,3-b]pyridin-6-yl)cyclopropanecarboxamide] | > 200
CC1CN(C(=O)c2ccnc(Br)c2)CC=C1c1cc(NC(=O)C2CC2)nc2[nH]ccc12 (centres unmarked) [Example 382, N-(4-(1-(2-bromoisonicotinoyl)-3-methyl-1,2,3,6-tetrahydropyridin-4-yl)-1H-pyrrolo[2,3-b]pyridin-6-yl)cyclopropanecarboxamide] | 20 to 200
O=C(Nc1cc(-c2ccc(NS(=O)(=O)C3CCS(=O)(=O)C3)cc2)c2cc[nH]c2n1)C1CC1 (centres unmarked) [Example 10, N-(4-(4-((1,1-dioxidotetrahydrothiophene)-3-sulfonamido)phenyl)-1H-pyrrolo[2,3-b]pyridin-6-yl)cyclopropanecarboxamide] | < 20
O=C(Nc1cc(-c2ccc(OCCN3CCOCC3)cc2)c2cc[nH]c2n1)C1CC1 [Example 642, N-(4-(4-(2-morpholinoethoxy)phenyl)-1H-pyrrolo[2,3-b]pyridin-6-yl)cyclopropanecarboxamide] | 20 to 200
N#CC1(CS(=O)(=O)N2CC=C(c3cc(NC(=O)C4CC4)nc4[nH]ccc34)C2)CC1 [Example 213, N-(4-(1-(((1-cyanocyclopropyl)methyl)sulfonyl)-2,5-dihydro-1H-pyrrol-3-yl)-1H-pyrrolo[2,3-b]pyridin-6-yl)cyclopropanecarboxamide] | > 200
CCCS(=O)(=O)Nc1ccc(-c2nc(NC(=O)C3CC3)nc3[nH]ccc23)cc1F [Example 206, N-(4-(3-fluoro-4-(propylsulfonamido)phenyl)-7H-pyrrolo[2,3-d]pyrimidin-2-yl)cyclopropanecarboxamide] | 20 to 200
CCS(=O)(=O)N(C)[C@H]1CCN(c2cc(NC(=O)C3CC3)nc3[nH]ccc23)C1 [Example 672, (S)—N-(4-(3-(N-methylethylsulfonamido)pyrrolidin-1-yl)-1H-pyrrolo[2,3-b]pyridin-6-yl)cyclopropanecarboxamide] | > 200
O=C(Nc1cc(C2=CCN(C(=O)c3ccnc(F)c3)CCC2)c2cc[nH]c2n1)C1CC1 [Example 423, N-(4-(1-(2-fluoroisonicotinoyl)-2,5,6,7-tetrahydro-1H-azepin-4-yl)-1H-pyrrolo[2,3-b]pyridin-6-yl)cyclopropanecarboxamide] | < 20
CCCS(=O)(=O)Nc1c(F)cc(-c2cc(NC(=O)C3CC3)nc3[nH]ccc23)cc1F [Example 82, N-(4-(3,5-difluoro-4-(propylsulfonamido)phenyl)-1H-pyrrolo[2,3-b]pyridin-6-yl)cyclopropanecarboxamide] | 20 to 200
